Results: PubChem BioAssay (NCI)
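Protocol summary: plate cells (96-well), add compound at 5 concentrations, incubate 48 h, interpolate endpoints linearly. GI50 is the concentration that inhibits growth by half. At the TGI there is no net growth.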

How the values were obtained:
Assay in all cases: NCI tumour cell line growth inhibition, 48 h
HOP-92 NSCLC = system: HOP-92 NSCLC
A549 NSCLC = system: A549 NSCLC
SF-295 CNS = system: SF-295 CNS
OVCAR-3 ovarian = system: OVCAR-3 ovarian
OVCAR-4 ovarian = system: OVCAR-4 ovarian
K-562 leukemia = system: K-562 leukemia
SN12C renal = system: SN12C renal
CCRF-CEM leukemia = system: CCRF-CEM leukemia
SK-MEL-5 melanoma = system: SK-MEL-5 melanoma
OVCAR-5 ovarian = system: OVCAR-5 ovarian

| Compound | GI50 (HOP-92 NSCLC) | TGI (HOP-92 NSCLC) | GI50 (A549 NSCLC) | TGI (A549 NSCLC) | GI50 (SF-295 CNS) | TGI (SF-295 CNS) | GI50 (OVCAR-3 ovarian) | TGI (OVCAR-3 ovarian) | GI50 (OVCAR-4 ovarian) | TGI (OVCAR-4 ovarian) | GI50 (K-562 leukemia) | TGI (K-562 leukemia) | GI50 (SN12C renal) | TGI (SN12C renal) | GI50 (CCRF-CEM leukemia) | TGI (CCRF-CEM leukemia) | GI50 (SK-MEL-5 melanoma) | TGI (SK-MEL-5 melanoma) | GI50 (OVCAR-5 ovarian) | TGI (OVCAR-5 ovarian) |
| --- | --- | --- | --- | --- | --- | --- | --- | --- | --- | --- | --- | --- | --- | --- | --- | --- | --- | --- | --- | --- |
| Nc1ccccc1C#C/C=C\C#Cc1ccc(Cl)cc1Cl | 17 µM | 48.1 µM | 16 µM | 44.2 µM | 5.17 µM | 20 µM | 5.19 µM | 17.9 µM | 28.5 µM | > 100 µM | 4.84 µM | > 100 µM | 14.4 µM | 30.5 µM | 0.376 µM | 10.6 µM | 6.63 µM | 21.2 µM | 13.8 µM | 28.7 µM |
| CN(c1ccccc1)C(c1ccccc1)C(O)c1ccccc1 (stereo not given) | – | 47.8 µM | – | 35.4 µM | – | 32 µM | – | 32 µM | – | 34.5 µM | – | 41.1 µM | – | 31.3 µM | – | 63.3 µM | – | 34.7 µM | – | 37.3 µM |
| Cc1[nH]c(/C=C2\C(=O)Nc3ccc(F)cc32)c(C)c1C(=O)NC[C@H](O)CN1CCOCC1 | 1.17 µM | 6.84 µM | 6.02 µM | > 10 µM | > 10 µM | > 10 µM | > 10 µM | > 10 µM | 7.95 µM | > 10 µM | 4.96 µM | > 10 µM | 3.05 µM | > 10 µM | 0.0624 µM | > 10 µM | 4.04 µM | > 10 µM | 2.85 µM | > 10 µM |
| CCOC(=O)C(C)c1cc(C2(C)OCCO2)c(C)o1 (stereo not given) | – | 97.7 µM | – | > 100 µM | – | > 100 µM | – | > 100 µM | – | > 100 µM | – | > 100 µM | – | > 100 µM | – | > 100 µM | – | > 100 µM | – | > 100 µM |
| CC(=O)OCC1OC(n2c(=O)n(-c3ccccc3)c(=O)c3ccccc32)C(OC(C)=O)C(OC(C)=O)C1OC(C)=O (stereo not given) | – | > 100 µM | – | > 100 µM | – | > 100 µM | – | > 100 µM | – | > 100 µM | – | > 100 µM | – | > 100 µM | – | > 100 µM | – | > 100 µM | – | > 100 µM |
| CCN(CC)CCOc1ccc(/C=C2\CC3C4CC=C5C[C@@H](N6CCCC6)CC[C@]5(C)C4CC[C@]3(C)[C@H]2O)cc1OC (stereo not given in full) | 8.14 µM | 32.7 µM | 7.91 µM | > 100 µM | 3.86 µM | 13.5 µM | 5.06 µM | 13.6 µM | 24 µM | > 82.3 µM | 4.49 µM | > 100 µM | 20.6 µM | > 63.5 µM | 1.14 µM | 4.77 µM | 0.336 µM | 1.95 µM | 24 µM | > 72.8 µM |
| C=C1C(=O)OC2CC3(CO3)C3C(O)C(O)CC3(C)CC12 (stereo not given) | – | 50.7 µM | – | > 100 µM | – | > 100 µM | – | 55.6 µM | – | > 100 µM | – | > 100 µM | – | 68.1 µM | – | 45.9 µM | – | 42 µM | – | 71.7 µM |
| Cc1cc(C)nc(Nc2nc3ccc([N+](=O)[O-])cc3[nH]2)n1 | – | > 100 µM | – | > 100 µM | – | > 100 µM | – | > 100 µM | – | > 100 µM | – | > 100 µM | – | > 100 µM | – | > 100 µM | – | > 100 µM | – | > 100 µM |
